{"source": "patent US20170051149A1", "about": "“AZOARYLS AS REVERSIBLY MODULATABLE TUBULIN INHIBITORS” (ECOLE NORMALE SUPERIEURE DE LYON, priority 2014, published 2017)", "key": {"HeLa cells [1]": {"system": "HeLa cells", "test": "MTT assay", "type": "cell-based", "conditions": "50 nM, 48 h", "source_text": "The cytotoxic properties of I.1 were subsequently confirmed with another method, using the quantification of mitochondrial dehydrogenase activity of cells as determined by the level of 3-(4.5-dimethylthiazol-2-yl)-2.5-diphenyl tetrazolium bromide (MTT) reduction to its purple formazan, according to standard protocol^[30]. […] Cells were kept in the dark, or exposed to a pulsed toxic regime of 390 nm only, or exposed to a strong rescue protocol with pulses of 390 nm then 505 nm light. Pulses of light were applied every 30 s; 390 nm light pulses lasted 150 ms every 30 s, while the 505 nm light pulses were applied for 500 ms; in the strong rescue regime, the 505 nm pulse was synchronised so that it began immediately after the 390 nm pulse ended.\nCellular viability was measured 48 h later, namely, cells were incubated with MTT for three hours and after dissolution of the formazan crystals with DMSO, absorbance at 550 nm was measured using a FLUOstar Omega microplate reader. Results are shown in Table 5 below and are expressed as a fold growth relative to the control growth of the cells treated only with a co-solvent (0.5% MeCN) and represent mean and standard deviation of quadruplicates of the optical density values, which are proportional to the cell number."}, "HEK-293T cells": {"system": "HEK-293T cells", "test": "MTT assay, light-dependent cell proliferation", "type": "cell-based", "conditions": "72 h"}, "HEK-293": {"system": "HEK-293", "test": "cell cycle analysis by PI flow cytometry", "type": "cell-based", "conditions": "15 nM, 30 h", "procedure": "(§1) The effect of compound I.1 on cell cycle progression was assessed by flow cytometry. Briefly, following the application of compound I.1 and exposure to the indicated light regime, cells were harvested on ice and incubated in a hypotonic buffer [0.1% sodium citrate, 0.1% Triton X-100 and 50 μg/mL propidium iodide (PI)] for 30 min at 4° C. Following the PI staining cells were analysed by flow cytometry using FACSCalibur flow cytometer (Becton Dickinson, Heidelberg, Germany) and Cell Quest Pro Software (Becton Dickinson). Subsequently the cell cycle analysis was performed using the FlowJo software (Tree Star Inc., Ashland, Oreg., USA)."}, "HeLa [2]": {"system": "HeLa", "test": "cell cycle analysis by PI flow cytometry", "type": "cell-based", "conditions": "15 nM, 30 h", "procedure": "as §1"}, "MDA-MB-231 cells": {"system": "MDA-MB-231 cells", "test": "cell cycle analysis by PI flow cytometry", "type": "cell-based", "conditions": "15 nM, 30 h", "procedure": "as §1"}, "HeLa [3]": {"system": "HeLa", "test": "membrane permeability, PI uptake in nonpermeabilized cells", "type": "cell-based", "conditions": "15 nM, 70 h", "procedure": "(§2) Membrane integrity was assessed as a marker of cellular viability, via examining the uptake of propidium iodide (PI) in nonpermeabilized cells according to a standard protocol. Namely, cells were harvested and incubated with 5 μg/mL PI in PBS containing 2% FCS (foetal calf serum), and immediately analysed by flow cytometry using a FACSCalibur flow cytometer."}, "Jurkat cells [4]": {"system": "Jurkat cells", "test": "membrane permeability, PI uptake in nonpermeabilized cells", "type": "cell-based", "conditions": "15 nM, 48 h", "procedure": "as §2"}, "MDA-MB-231": {"system": "MDA-MB-231", "test": "membrane permeability, PI uptake in nonpermeabilized cells", "type": "cell-based", "conditions": "15 nM, 70 h", "procedure": "as §2"}, "HeLa cells [5]": {"system": "HeLa cells", "test": "nuclear fragmentation (subG1, Nicoletti), induction of apoptosis", "type": "cell-based", "conditions": "15 nM, 30 h", "procedure": "(§3) Different cell types, including MDA-MB-231, Jurkat, HeLa and HepG2 cells, were treated with indicated concentrations of compound I.1 and exposed to a 390 nm toxic regime, a rescue regime with both 390 nm and 515 nm light, or kept in the dark. Following the treatment, cells were stained with PI and the percentage of cells containing a hypodiploid amount of DNA (subG1 phase of cell cycle), was determined. Briefly, prior to analysis, cells were harvested on ice and incubated in a hypotonic buffer [0.1% sodium citrate, 0.1% Triton X-100 and 50 μg/mL propidium iodide (PI)] for 30 min at 4° C. Following the PI staining cells were analysed by flow cytometry using FACSCalibur flow cytometer (Becton Dickinson, Heidelberg, Germany) and Cell Quest Pro Software (Becton Dickinson)."}, "Jurkat cells [6]": {"system": "Jurkat cells", "test": "nuclear fragmentation (subG1, Nicoletti), induction of apoptosis", "type": "cell-based", "conditions": "48 h", "procedure": "as §3"}, "tubulin": {"system": "tubulin", "conditions": "trans isomer; read-out: in vitro IC50, tubulin polymerisation; cited from earlier work"}}}
{"smiles": "COc1ccc(/C=C\\c2cc(OC)c(OC)c(OC)c2)cc1OP(=O)(O)O", "note": "[CA4P, fosbretabulin, reference compound]", "values": [{"measurement": "mean fold growth", "setting": "HeLa cells [1]; 390 nm (150 ms every 30 s)", "value": 0.38, "unit": "fold"}, {"measurement": "mean fold growth", "setting": "HeLa cells [1]; Dark", "value": 0.29, "unit": "fold"}, {"measurement": "fold growth relative to cosolvent control (MTT)", "setting": "HEK-293T cells; 5 nM, 390 nm, 0.35 s every 2 min", "value": 1.29}, {"measurement": "fold growth relative to cosolvent control (MTT)", "setting": "HEK-293T cells; 5 nM, 390 nm, 0.35s then 490 nm, 3 s (rescue) every 2 min", "value": 1.28}, {"measurement": "fold growth relative to cosolvent control (MTT)", "setting": "HEK-293T cells; 5 nM, 410 nm, 0.35 s every 2 min", "value": 1.19}, {"measurement": "fold growth relative to cosolvent control (MTT)", "setting": "HEK-293T cells; 5 nM, 410 nm, 0.35 s then 505 nm, 3 s (rescue) every 2 min", "value": 1.20}, {"measurement": "fold growth relative to cosolvent control (MTT)", "setting": "HEK-293T cells; 5 nM, 475 nm, 3 s every 2 min", "value": 1.12}, {"measurement": "fold growth relative to cosolvent control (MTT)", "setting": "HEK-293T cells; 5 nM, 490 nm, 3 s every 2 min", "value": 1.43}, {"measurement": "fold growth relative to cosolvent control (MTT)", "setting": "HEK-293T cells; 5 nM, 505 nm, 3 s every 2 min", "value": 1.07}, {"measurement": "fold growth relative to cosolvent control (MTT)", "setting": "HEK-293T cells; 5 nM, 525 nm, 3 s every 2 min", "value": 0.86}, {"measurement": "fold growth relative to cosolvent control (MTT)", "setting": "HEK-293T cells; 5 nM, Dark", "value": 0.82}, {"measurement": "fold growth relative to cosolvent control (MTT)", "setting": "HEK-293T cells; 15 nM, 390 nm, 0.35 s every 2 min", "value": 0.88}, {"measurement": "fold growth relative to cosolvent control (MTT)", "setting": "HEK-293T cells; 15 nM, 390 nm, 0.35s then 490 nm, 3 s (rescue) every 2 min", "value": 0.82}, {"measurement": "fold growth relative to cosolvent control (MTT)", "setting": "HEK-293T cells; 15 nM, 410 nm, 0.35 s every 2 min", "value": 0.80}, {"measurement": "fold growth relative to cosolvent control (MTT)", "setting": "HEK-293T cells; 15 nM, 410 nm, 0.35 s then 505 nm, 3 s (rescue) every 2 min", "value": 0.81}, {"measurement": "fold growth relative to cosolvent control (MTT)", "setting": "HEK-293T cells; 15 nM, 475 nm, 3 s every 2 min", "value": 0.70}, {"measurement": "fold growth relative to cosolvent control (MTT)", "setting": "HEK-293T cells; 15 nM, 490 nm, 3 s every 2 min", "value": 0.97}, {"measurement": "fold growth relative to cosolvent control (MTT)", "setting": "HEK-293T cells; 15 nM, 505 nm, 3 s every 2 min", "value": 0.75}, {"measurement": "fold growth relative to cosolvent control (MTT)", "setting": "HEK-293T cells; 15 nM, 525 nm, 3 s every 2 min", "value": 0.81}, {"measurement": "fold growth relative to cosolvent control (MTT)", "setting": "HEK-293T cells; 15 nM, Dark", "value": 0.79}, {"measurement": "mean % G2/M phase", "setting": "HEK-293; 390 nm (1 s every 15 min)", "value": 70.1, "unit": "%"}, {"measurement": "mean % G2/M phase", "setting": "HEK-293; dark", "value": 72.0, "unit": "%"}, {"measurement": "mean % G2/M phase", "setting": "HeLa [2]; 390 nm (1 s every 15 min)", "value": 69.5, "unit": "%"}, {"measurement": "mean % G2/M phase", "setting": "HeLa [2]; dark", "value": 69.0, "unit": "%"}, {"measurement": "mean % G2/M phase", "setting": "MDA-MB-231 cells; 390 nm (1 s every 15 min)", "value": 50.9, "unit": "%"}, {"measurement": "mean % G2/M phase", "setting": "MDA-MB-231 cells; dark", "value": 51.3, "unit": "%"}, {"measurement": "mean % cells PI+", "setting": "HeLa [3]; 390 nm (1 s every 15 min)", "value": 63.9, "unit": "%"}, {"measurement": "mean % cells PI+", "setting": "HeLa [3]; dark", "value": 62.5, "unit": "%"}, {"measurement": "mean % cells PI+", "setting": "Jurkat cells [4]; 390 nm (350 ms every 5 min)", "value": 5.7, "unit": "%"}, {"measurement": "mean % cells PI+", "setting": "Jurkat cells [4]; dark", "value": 8.0, "unit": "%"}, {"measurement": "mean % cells PI+", "setting": "MDA-MB-231; 390 nm (1 s every 15 min)", "value": 43.2, "unit": "%"}, {"measurement": "mean % cells PI+", "setting": "MDA-MB-231; dark", "value": 45.1, "unit": "%"}, {"measurement": "mean % subG1 phase", "setting": "HeLa cells [5]; 390 nm light (1 s pulses every 15 min)", "value": 12.3, "unit": "%"}, {"measurement": "mean % subG1 phase", "setting": "HeLa cells [5]; dark", "value": 11.5, "unit": "%"}, {"measurement": "mean % subG1 phase", "setting": "Jurkat cells [6]; 5 nM, 390 nm (350 ms pulses every 5 min)", "value": 40.4, "unit": "%"}, {"measurement": "mean % subG1 phase", "setting": "Jurkat cells [6]; 5 nM, dark", "value": 37.5, "unit": "%"}, {"measurement": "mean % subG1 phase", "setting": "Jurkat cells [6]; 15 nM, 390 nm (350 ms pulses every 5 min)", "value": 91.5, "unit": "%"}, {"measurement": "mean % subG1 phase", "setting": "Jurkat cells [6]; 15 nM, dark", "value": 89.7, "unit": "%"}]}
{"smiles": "CCCCCCCOc1ccc(/N=N/c2ccc(CNN[C@H](C=O)CCCCN)cc2)cc1", "note": "[P1]", "values": [{"measurement": "IC50", "setting": "tubulin", "value": "~100", "unit": "µM"}]}
